In patent publication US12594276B2, “Inhibitors of human immunodeficiency virus replication” (ViiV Healthcare UK (No.5) Limited, priority 2024, dated 2026):

Legend:
[1] = test system: recombinant NL4-3 virus (nef section replaced with Renilla luciferase gene) in MT-2 cells; experiment: HIV cell culture assay (antiviral activity, luciferase readout); format: cell-based; details: Renilla, NL43, MT-2 cells infected for 4-5 days with recombinant NL4-3 Renilla luciferase virus
In short: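 The reporter virus was produced by transfecting 293T cells with the NL4-3 nef/Renilla luciferase proviral clone. MT-2 cells were infected for 4–5 days with serial compound dilutions present. Luciferase was read with a live-cell substrate, and EC50 came from the exponential median-effect equation.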

[2] = Compound cytotoxicity, XTT-based colorimetric assay; format: cell-based; details: human; uninfected MT2 cells, day 4, XTT; read-out: CC50
In short: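 Cells seeded as for the antiviral assay but left uninfected (MT2). Compound exposure continued to day 4. XTT reagent added and colour read. CC50 calculated.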

| SMILES | EC50 [1] [nM] | CC50 at 4 days [2] [nM] |
| --- | --- | --- |
| Cc1cc(C2(F)CCC(F)(F)CC2)nc2nc([C@H](Cc3cc(F)cc(F)c3)NC(=O)Cn3nc(C(F)(F)F)c4c3C[C@@H]3C[C@H]43)n(-c3ccc(Cl)c4c(NS(C)(=O)=O)nn(CCN5C[C@@H](C)O[C@@H](C)C5)c34)c(=O)c12 (atropisomer, axis not shown; (P)) [Example 597, N-[(1S)-1-[(3P)-3-(4-chloro-1-{2-[(2R,6S)-2,6-dimethylmorpholin-4-yl]ethyl}-3-methanesulfonamido-1H-indazol-7-yl)-5-methyl-4-oxo-7-(1,4,4-trifluorocyclohexyl)-3H,4H-pyrido[2,3-d]pyrimidin-2-yl]-2-(3,5-difluorophenyl)ethyl]-2-[(2S,4S)-9-(trifluoromethyl)-7,8-diazatricyclo[4.3.0.0^2,^4]nona-1(6),8-dien-7-yl]acetamide] | 0.021 | > 20 |
| Cc1cc(C2(F)CCC(F)(F)CC2)nc2nc([C@H](Cc3cc(F)cc(F)c3)NC(=O)Cn3nc([C@H]4CC4(F)F)c4c3C[C@H]3C[C@@H]43)n(-c3ccc(Cl)c4c(NS(C)(=O)=O)nn(CCN5C[C@@H](C)O[C@@H](C)C5)c34)c(=O)c12 (atropisomer, axis not shown; (P)) [Example 598, N-[(1S)-1-[(3P)-3-(4-chloro-1-{2-[(2R,6S)-2,6-dimethylmorpholin-4-yl]ethyl}-3-methanesulfonamido-1H-indazol-7-yl)-5-methyl-4-oxo-7-(1,4,4-trifluorocyclohexyl)-3H,4H-pyrido[2,3-d]pyrimidin-2-yl]-2-(3,5-difluorophenyl)ethyl]-2-[(2R,4R)-9-[(1R)-2,2-difluorocyclopropyl]-7,8-diazatricyclo[4.3.0.0^2,^4]nona-1(6),8-dien-7-yl]acetamide] | 0.009 | > 20 |
| COCCCn1nc(NS(C)(=O)=O)c2c(Cl)ccc(-n3c([C@H](Cc4cc(F)cc(F)c4)NC(=O)Cn4nc(C5CC5)c5c4C[C@@H]4C[C@H]54)nc4nc(C5CCC(F)(F)CC5)cc(CN5C[C@@H](C)O[C@@H](C)C5)c4c3=O)c21 (atropisomer, axis not shown; (P)) [Example 599, N-[(1S)-1-[(3P)-3-[4-chloro-3-methanesulfonamido-1-(3-methoxypropyl)-1H-indazol-7-yl]-7-(4,4-difluorocyclohexyl)-5-{[(2R,6S)-2,6-dimethylmorpholin-4-yl]methyl}-4-oxo-3H,4H-pyrido[2,3-d]pyrimidin-2-yl]-2-(3,5-difluorophenyl)ethyl]-2-[(2S,4S)-9-cyclopropyl-7,8-diazatricyclo[4.3.0.0^2,^4]nona-1(6),8-dien-7-yl]acetamide] | 0.007 | > 20 |
| COCCCn1nc(NS(C)(=O)=O)c2c(Cl)ccc(-n3c([C@H](Cc4cc(F)cc(F)c4)NC(=O)Cn4nc(C(F)F)c5c4C(F)(F)[C@@H]4C[C@H]54)nc4nc(C5(F)CCC(F)(F)CC5)cc(CN5C[C@@H](C)O[C@@H](C)C5)c4c3=O)c21 (atropisomer, axis not shown; (P)) [Example 600, N-[(1S)-1-[(3P)-3-[4-chloro-3-methanesulfonamido-1-(3-methoxypropyl)-1H-indazol-7-yl]-5-{[(2R,6S)-2,6-dimethylmorpholin-4-yl]methyl}-4-oxo-7-(1,4,4-trifluorocyclohexyl)-3H,4H-pyrido[2,3-d]pyrimidin-2-yl]-2-(3,5-difluorophenyl)ethyl]-2-[(2S,4R)-9-(difluoromethyl)-5,5-difluoro-7,8-diazatricyclo[4.3.0.0^2,^4]nona-1(6),8-dien-7-yl]acetamide] | 0.008 | > 20 |
| CCNc1cc(C2CCC(F)(F)CC2)nc2nc([C@H](Cc3cc(F)cc(F)c3)NC(=O)Cn3nc(C4CC4)c4c3C[C@@H]3C[C@H]43)n(-c3ccc(Cl)c4c(NS(C)(=O)=O)nn(CCCOC)c34)c(=O)c12 (atropisomer, axis not shown; (P)) [Example 601, N-[(1S)-1-[(3P)-3-[4-chloro-3-methanesulfonamido-1-(3-methoxypropyl)-1H-indazol-7-yl]-7-(4,4-difluorocyclohexyl)-5-(ethylamino)-4-oxo-3H,4H-pyrido[2,3-d]pyrimidin-2-yl]-2-(3,5-difluorophenyl)ethyl]-2-[(2S,4S)-9-cyclopropyl-7,8-diazatricyclo[4.3.0.0^2,^4]nona-1(6),8-dien-7-yl]acetamide] | 0.008 | > 20 |
| COCCCn1nc(NS(C)(=O)=O)c2c(Cl)ccc(-n3c([C@H](Cc4cc(F)cc(F)c4)NC(=O)Cn4nc(C5CC5)c5c4C[C@@H]4C[C@H]54)nc4nc(C5(F)CCC(F)(F)CC5)cc(CN5C[C@@H](C)O[C@@H](C)C5)c4c3=O)c21 (atropisomer, axis not shown; (P)) [Example 602, N-[(1S)-1-[(3P)-3-[4-chloro-3-methanesulfonamido-1-(3-methoxypropyl)-1H-indazol-7-yl]-5-{[(2R,6S)-2,6-dimethylmorpholin-4-yl]methyl}-4-oxo-7-(1,4,4-trifluorocyclohexyl)-3H,4H-pyrido[2,3-d]pyrimidin-2-yl]-2-(3,5-difluorophenyl)ethyl]-2-[(2S,4S)-9-cyclopropyl-7,8-diazatricyclo[4.3.0.0^2,^4]nona-1(6),8-dien-7-yl]acetamide] | 0.017 | > 20 |
| COCCCn1nc(NS(C)(=O)=O)c2c(Cl)ccc(-n3c([C@H](Cc4cc(F)cc(F)c4)NC(=O)Cn4nc(C5CC5)c5c4C[C@@H]4C[C@H]54)nc4nc(C5CCC(F)(F)CC5)cc(CN5CC(F)(F)C5)c4c3=O)c21 (atropisomer, axis not shown; (P)) [Example 603, N-[(1S)-1-[(3P)-3-[4-chloro-3-methanesulfonamido-1-(3-methoxypropyl)-1H-indazol-7-yl]-5-[(3,3-difluoroazetidin-1-yl)methyl]-7-(4,4-difluorocyclohexyl)-4-oxo-3H,4H-pyrido[2,3-d]pyrimidin-2-yl]-2-(3,5-difluorophenyl)ethyl]-2-[(2S,4S)-9-cyclopropyl-7,8-diazatricyclo[4.3.0.0^2,^4]nona-1(6),8-dien-7-yl]acetamide] | 0.004 | > 20 |
| COCCCn1nc(NS(C)(=O)=O)c2c(Cl)ccc(-n3c([C@H](Cc4cc(F)cc(F)c4)NC(=O)Cn4nc(C(F)F)c5c4C(F)(F)[C@@H]4C[C@H]54)nc4nc(C5CCC(F)(F)CC5)cc(CN5CC(OC)C5)c4c3=O)c21 (atropisomer, axis not shown; (P)) [Example 604, N-[(1S)-1-[(3P)-3-[4-chloro-3-methanesulfonamido-1-(3-methoxypropyl)-1H-indazol-7-yl]-7-(4,4-difluorocyclohexyl)-5-[(3-methoxyazetidin-1-yl)methyl]-4-oxo-3H,4H-pyrido[2,3-d]pyrimidin-2-yl]-2-(3,5-difluorophenyl)ethyl]-2-[(2S,4R)-9-(difluoromethyl)-5,5-difluoro-7,8-diazatricyclo[4.3.0.0^2,^4]nona-1(6),8-dien-7-yl]acetamide] | 0.011 | > 20 |
| COCCCn1nc(NS(C)(=O)=O)c2c(Cl)ccc(-n3c([C@H](Cc4cc(F)cc(F)c4)NC(=O)Cn4nc(C(F)F)c5c4C(F)(F)[C@@H]4C[C@H]54)nc4nc(C5CCC(F)(F)CC5)cc(CN5CC(C(F)(F)F)C5)c4c3=O)c21 (atropisomer, axis not shown; (P)) [Example 605, N-[(1S)-1-[(3P)-3-[4-chloro-3-methanesulfonamido-1-(3-methoxypropyl)-1H-indazol-7-yl]-7-(4,4-difluorocyclohexyl)-4-oxo-5-{[3-(trifluoromethyl)azetidin-1-yl]methyl}-3H,4H-pyrido[2,3-d]pyrimidin-2-yl]-2-(3,5-difluorophenyl)ethyl]-2-[(2S,4R)-9-(difluoromethyl)-5,5-difluoro-7,8-diazatricyclo[4.3.0.0^2,^4]nona-1(6),8-dien-7-yl]acetamide] | 0.018 | > 20 |
| COCCCn1nc(NS(C)(=O)=O)c2c(Cl)ccc(-n3c([C@H](Cc4cc(F)cc(F)c4)NC(=O)Cn4nc(C(F)F)c5c4C(F)(F)[C@@H]4C[C@H]54)nc4nc(C5CCC(F)(F)CC5)ccc4c3=O)c21 (atropisomer, axis not shown; (P)) [Example 623, N-[(1S)-1-[(3P)-3-[4-chloro-3-methanesulfonamido-1-(3-methoxypropyl)-1H-indazol-7-yl]-7-(4,4-difluorocyclohexyl)-4-oxo-3H,4H-pyrido[2,3-d]pyrimidin-2-yl]-2-(3,5-difluorophenyl)ethyl]-2-[(2S,4R)-9-(difluoromethyl)-5,5-difluoro-7,8-diazatricyclo[4.3.0.0^2,^4]nona-1(6),8-dien-7-yl]acetamide] | 0.012 | > 100 |
| CCc1cc(C2CCC(F)(F)CC2)nc2nc([C@H](Cc3cc(F)cc(F)c3)NC(=O)Cn3nc(C(F)F)c4c3C(F)(F)[C@@H]3C[C@H]43)n(-c3ccc(Cl)c4c(NS(C)(=O)=O)nn(CCOC)c34)c(=O)c12 (atropisomer, axis not shown; (P)) [Example 632, N-[(1S)-1-[(3P)-3-[4-chloro-3-methanesulfonamido-1-(2-methoxyethyl)-1H-indazol-7-yl]-7-(4,4-difluorocyclohexyl)-5-ethyl-4-oxo-3H,4H-pyrido[2,3-d]pyrimidin-2-yl]-2-(3,5-difluorophenyl)ethyl]-2-[(2S,4R)-9-(difluoromethyl)-5,5-difluoro-7,8-diazatricyclo[4.3.0.0^2,^4]nona-1(6),8-dien-7-yl]acetamide] | 0.021 | > 50 |
